Assay results from patent US7635685B2 (priority 2003, dated 2009).
≈ marks a conversion by molar mass, not a printed value. Where “and” joins values, the source holds several entries; their conditions need not be identical. Equal values may be shown once. Read-outs that look alike come from different tables or passages of the source.

Columns and labels:
[1] = in vivo; cited from earlier work
[2] = test system: Salmonella virchow (SV49); assay: microbe, parasite or virus in culture; format: cell-based
[3] = test system: B. anthracis (Sterne strain); assay: microbe, parasite or virus in culture; format: cell-based, Bacillus anthracis
E. coli XL1(pET9d) = assay: microbe, parasite or virus in culture; format: cell-based
[4] = test system: Pseudomonas aeruginosa (ATCC 27853); assay: microbe, parasite or virus in culture; format: cell-based
[5] = test system: adenylyl(3′-5′)-adenosine (ApA); details: cited from earlier work
[6] = test system: Staphylococcus epidermidis; assay: microbe, parasite or virus in culture; format: cell-based
[7] = target: 27-mer 16S A site RNA construct (AS-wt); format: binding
E. coli strains = assay: microbe, parasite or virus in culture; format: cell-based
Bacillus subtilis = assay: microbe, parasite or virus in culture; format: cell-based

NC[C@@H]1O[C@H](O[C@H]2[C@@H](O)[C@H](O[C@@H]3[C@@H](O)[C@H](N)C[C@H](N)[C@H]3O[C@H]3O[C@H](CO)[C@@H](O)[C@H](O)[C@H]3N)O[C@@H]2CO)[C@H](N)[C@@H](O)[C@@H]1O [paromomycin]
LD50 [1]: 160 mg/kg

NC[C@H]1O[C@H](O[C@H]2[C@H](O[C@@H]3O[C@H](CO)[C@@H](O)[C@H]3O)[C@@H](O)[C@H](N)C[C@@H]2N)[C@H](N)[C@@H](O)[C@@H]1O [ribostamycin]
LD50 [1]: 260 mg/kg

neomycin B
MIC [2]: 200 to 250 µg/mL | MIC [3]: 0.25 µg/mL | MIC (E. coli XL1(pET9d)): 50 to 60 µg/mL | MIC [4]: 55 to 60 µg/mL | first-order rate constants lower than those reported for natural ribozymes [5]: over 1000 fold | hydrolysis of ApA faster than 1,3-propanediamine [5]: 3 fold | MIC [6]: 0.3 to 0.4 µg/mL | Kd ([7]; read-out: binding constant Kd to 16S A site RNA): 300 nM | MIC (E. coli strains): 4 to 5.5 µg/mL and 8 to 10 µg/mL | MIC (Bacillus subtilis): 0.8 to 0.9 µg/mL | LD50 [1]: 24 mg/kg

NC[C@@H]1O[C@H](O[C@H]2[C@@H](O)[C@H](O[C@@H]3[C@@H](O)[C@H](N)C[C@H](N)[C@H]3O[C@H]3O[C@H](CO)[C@@H](O)C[C@H]3N)O[C@@H]2CO)[C@H](N)[C@@H](O)[C@@H]1O[C@H]1O[C@H](CO)[C@@H](O)[C@H](O)[C@@H]1O [lividomycin]
LD50 [1]: 280 mg/kg

NCC1O[C@H](O[C@@H]2C(N)C[C@@H](N)C(O)[C@H]2O[C@@H]2O[C@H](CS[C@@H]3O[C@H](CO)[C@H](O)C3O)[C@H](O[C@H]3O[C@@H](CN)[C@@H](O)C(O)C3N)C2O)C(N)[C@@H](O)[C@@H]1O (stereo partly shown) [Compound XI]
MIC ([2]; Salmonella enterica): > 250 µg/mL | MIC ([3]; Bacillus anthracis, 18 h): 2 µg/mL (≈ 2.62 µM) | MIC (E. coli XL1(pET9d); Escherichia coli): > 200 µg/mL | MIC ([4]; Pseudomonas aeruginosa, ATCC27853): 200 to 400 µg/mL (≈ 262 to 524 µM) | MIC ([6]; Staphylococcus epidermidis, ATCC12228): 1.5 to 3 µg/mL (≈ 1.97 to 3.93 µM) | Kd ([7]; read-out: Kd): 1000 ± 200 nM | MIC (E. coli strains; Escherichia coli): 30 to 40 µg/mL (≈ 39.3 to 52.4 µM) | MIC (E. coli strains; Escherichia coli, ATCC25922): 25 to 40 µg/mL (≈ 32.8 to 52.4 µM) | MIC (Bacillus subtilis; Bacillus subtilis, ATCC6633): 1 to 2.5 µg/mL (≈ 1.31 to 3.28 µM)

NCC1O[C@H](OC2C(O)[C@H](OC3C(O)[C@H](N)CC(N)[C@H]3O[C@H]3OC(CN)[C@@H](O)C(O)C3N)O[C@@H]2CO[C@@H]2OC(CO)[C@@H](O)C(O)C2O)C(N)C(O)[C@@H]1O (stereo partly shown) [Compound XII]
MIC ([3]; Bacillus anthracis, 18 h): 8 µg/mL (≈ 10.3 µM) | Kd ([7]; read-out: Kd): 1100 ± 200 nM

NC[C@H]1O[C@H](O[C@H]2[C@H](O)[C@@H](O[C@H]3O[C@H](CO)[C@@H](O)[C@H](N)[C@H]3O)[C@H](N)C[C@@H]2N)[C@H](O)[C@@H](O)[C@@H]1O [KAN]
MIC [2]: 500 to 570 µg/mL | MIC (E. coli XL1(pET9d)): 260 to 270 µg/mL | MIC [4]: 400 to 500 µg/mL
